Where two headings read alike, the source gives them in different places. Non-standard residues stand in square brackets, D forms with d. No end group written: not given here. Abu = CC[C@H](N)C(=O)O
Key:
[1] = proteolytic resistance in pig liver homogenate; type: in vitro ADME; settings: for metabolised at 3 h, 0.2 μmol angiotensin/mg liver homogenate / half-life / half-life at 0.2 μmol/mg liver homogenate: pig; for metabolised at 3 h, 0.2 μmol angiotensin/mg liver homogenate / half-life at 0.2 μmol/mg liver homogenate: pig liver homogenate; for metabolised at 3 h, 0.2 μmol angiotensin/mg liver homogenate: read-out: Degradation after 3 h (%)
Method: (§1) Angiotensin (wildtype or cyclised analogs, chemically produced [Cyc 4-7] Ang(1-7) or biologically produced [Cyc 4-7] Ang(1-8)) was added to homogenates of pig liver (0.2 μmol angiotensin/mg liver homogenate), pig kidney (0.2 μmol angiotensin/mg kidney homogenate), pig pancreas (0.8 μmol angiotensin/mg pancreas homogenate) or plasma (1 μmol angiotensin/ml) and incubated at 37° C., pH 7.4 or pH 5, for different time periods up to 30 hours. The enzymatic reaction was stopped by 100° C. for 5 min. The remaining amount of intact angiotensin was determined by RP-HPLC with C18-column, mobile phase gradient and 214 nm detection.

[2] = proteolytic resistance in pig pancreas homogenate; type: in vitro ADME; settings: for metabolised at 3 h, 0.8 μmol angiotensin/mg pancreas homogenate: read-out: Degradation after 3 h (%)
Method: as §1

[3] = proteolytic resistance in pig kidney homogenate; type: in vitro ADME; settings: for metabolised at 3 h, 0.2 μmol angiotensin/mg kidney homogenate / half-life / half-life at 0.2 μmol/mg kidney homogenate: pig; for metabolised at 3 h, 0.2 μmol angiotensin/mg kidney homogenate / half-life at 0.2 μmol/mg kidney homogenate: pig kidney homogenate; for metabolised at 3 h, 0.2 μmol angiotensin/mg kidney homogenate: read-out: Degradation after 3 h (%)
Method: as §1

[4] = proteolytic resistance in plasma; type: in vitro ADME; settings: pH 7.4, 37° C.; for metabolised at 3 h, 1 μmol/ml: read-out: Degradation after 3 h (%)
Method: as §1

[5] = molecular target: T1, Angiotensin Converting Enzyme (ACE) from Porcine kidney (Sus scrofa, UniProt F1RRW5); experiment: resistance against angiotensin converting enzyme (ACE); type: in vitro ADME; settings: 50 μM peptide; for breakdown by ACE: 37° C., pH 8.3
T1 construct: Angiotensin Converting Enzyme (ACE) from Porcine kidney, SIGMA; purchased SIGMA; host or cells: porcine kidney (tissue-derived)
T1 sequence (F1RRW5 34-1309): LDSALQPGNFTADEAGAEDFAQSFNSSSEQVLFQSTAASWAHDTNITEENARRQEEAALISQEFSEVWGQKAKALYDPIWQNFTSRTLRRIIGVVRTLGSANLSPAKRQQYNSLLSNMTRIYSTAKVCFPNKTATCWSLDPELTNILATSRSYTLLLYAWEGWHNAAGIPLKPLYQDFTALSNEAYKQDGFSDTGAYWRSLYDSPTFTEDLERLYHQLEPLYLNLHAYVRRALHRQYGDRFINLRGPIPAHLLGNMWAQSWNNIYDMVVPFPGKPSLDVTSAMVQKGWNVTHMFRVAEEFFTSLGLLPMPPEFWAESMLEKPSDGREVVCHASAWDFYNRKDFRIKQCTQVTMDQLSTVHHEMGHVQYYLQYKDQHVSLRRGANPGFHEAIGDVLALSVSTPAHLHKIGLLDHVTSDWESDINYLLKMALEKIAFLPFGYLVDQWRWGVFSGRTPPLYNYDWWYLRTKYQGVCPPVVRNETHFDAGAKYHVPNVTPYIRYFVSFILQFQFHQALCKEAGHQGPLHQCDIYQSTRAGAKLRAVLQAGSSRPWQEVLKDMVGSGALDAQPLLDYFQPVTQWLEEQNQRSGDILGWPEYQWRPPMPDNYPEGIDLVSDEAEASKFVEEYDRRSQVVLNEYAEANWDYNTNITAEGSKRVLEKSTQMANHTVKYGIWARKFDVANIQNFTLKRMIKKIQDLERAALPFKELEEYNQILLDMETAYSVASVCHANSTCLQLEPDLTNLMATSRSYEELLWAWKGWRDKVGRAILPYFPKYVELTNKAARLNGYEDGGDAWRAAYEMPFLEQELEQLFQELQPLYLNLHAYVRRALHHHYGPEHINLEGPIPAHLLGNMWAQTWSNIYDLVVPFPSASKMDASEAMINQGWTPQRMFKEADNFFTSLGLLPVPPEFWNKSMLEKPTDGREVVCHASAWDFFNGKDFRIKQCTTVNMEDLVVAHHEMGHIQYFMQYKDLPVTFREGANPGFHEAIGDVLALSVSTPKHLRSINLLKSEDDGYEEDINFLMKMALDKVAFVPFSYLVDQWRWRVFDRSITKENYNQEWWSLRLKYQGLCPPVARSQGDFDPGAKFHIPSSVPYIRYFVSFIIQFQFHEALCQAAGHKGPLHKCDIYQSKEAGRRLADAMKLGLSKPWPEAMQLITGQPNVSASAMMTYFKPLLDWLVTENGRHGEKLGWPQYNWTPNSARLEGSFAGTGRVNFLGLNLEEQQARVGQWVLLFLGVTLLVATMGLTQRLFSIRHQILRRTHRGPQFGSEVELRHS
Method: Angiotensin Converting Enzyme (ACE) from Porcine kidney, SIGMA, was used at 4 nM final concentration, FIGS. 2A and 2B, or at 8 nM final concentration, FIGS. 2C and 2D. Natural Ang(1-7) was purchased from Bachem. All experiments were performed in duplicate in a waterbath at 37° C., incubations were performed in a buffer containing 100 mM Tris-HCl, 300 mm NaCl, 10 μM Zn, pH 8.3. Thioether-ring-containing angiotensin was obtained by bacterial production using L. lactis containing the nisin modification and transporter enzymes, NisBTC. Natural angiotensin(1-7), lanthionine-containing angiotensin(1-7) and methyllanthionine-containing angiotensin(1-7) were each used at a concentration of 50 μM. Both the lanthionine and the methyllanthionine variant had the thioether bridge between positions 4 and 7. The reaction was stopped by 100° C. for 5 minutes and put on ice. Samples were centrifuged for 10 min at 14000 rpm at 4° C. and quantified by RP-HPLC. Identification of the HPLC peaks was performed using Maldi TOF mass spectrometry. All points are the average of two measurements.

[6] = in vivo stability during continuous intravenous infusion in the rat (Maldi TOF of plasma); design: species or system Sprague Dawley rat; settings: i.v. infusion 1 mL/hour of 100 μM of each peptide together, sample taken at 120 min
Method: Rats (Sprague Dawley) were infused during 2 hours at a speed of 1 mL/hour with a solution containing simultaneously two compounds: both 100 μM natural Ang(1-7) as well as 100 μM methyllanthionine-containing angiotensin(1-7) with the thioether bridge between positions 4 and 7. Methyllanthionine-containing angiotensin(1-7) was prepared using L. lactis expressing lantibiotic enzymes as described in example 1. Maldi TOF analyses were performed on plasma samples as described in example 3. Undiluted sample (upper spectrum, mass peak of 826.06 Da at the arrow) and 100-fold diluted sample (lower spectrum, mass peak of 826.47 Da at the arrow) both gave a peak of the right mass, i.e. corresponding to intact methyllanthionine-containing angiotensin(1-7) (Theoretical mass M+H^+ equals 825.9758). […] In a control experiment mixing natural angiotensin(1-7) ex vivo with rat plasma, allowed subsequent detection of natural angiotensin(1-7) (not shown). Experimental details are mentioned in the text of example 3.
A male Sprague Dawley rat was kept under O2/Isoflurane (1.5-2%) narcosis throughout the study. A jugular vein catheter was applied and connected to a syringe containing 0.9% physiological salt solution. The syringe was mounted onto an infusion pump and the flow rate set to 1 mL/hour. […]

[7] = tested on: Angiotensin Converting Enzyme (ACE); experiment: Angiotensin Converting Enzyme (ACE) from Porcine kidney, SIGMA, 8 nM in 100 mM Tris-HCl, 300 mm NaCl, 10 μM Zn, pH 8.3; settings: 37° C.
ACE = experiment: In vivo; settings: cited from earlier work
[8] = tested on: Angiotensin Converting Enzyme (ACE); experiment: Angiotensin Converting Enzyme (ACE) from Porcine kidney, SIGMA, 4 nM in 100 mM Tris-HCl, 300 mm NaCl, 10 μM Zn, pH 8.3; settings: 37° C., up to 26 hour
[9] = pH 7.4, versus linear angiotensin(1-7)
[10] = tissue homogenate, pH 7.4, 37° C.
[11] = pig, pig pancreas homogenate, pH 5.0, 37° C.
[12] = pig, pig pancreas homogenate, pH 7.4, 37° C.

CC[C@H](C)[C@@H]1NC(=O)[C@H](NC(=O)[C@@H](NC(=O)[C@H](CCCNC(=N)N)NC(=O)[C@@H](N)CC(=O)O)C(C)C)CSC[C@@H](C(=O)O)NC(=O)[C@H](Cc2c[nH]cn2)NC1=O [[Cyc^4-7]Ang(1-7), Asp-Arg-Val-Ala-Ile-His-Ala]
increase of half-life by ring introduction ([1]; pH 5, versus linear angiotensin(1-7)): 5 fold | increase of half-life by 4,7-cyclisation [1, 9]: 2 fold | metabolised at 3 h, 0.2 μmol angiotensin/mg liver homogenate ([1]; pH 5.0, 37° C.): 8% | metabolised at 3 h, 0.2 μmol angiotensin/mg liver homogenate ([1]; pH 7.4, 37° C.): 82% | half-life ([1]; tissue homogenate, pH 5.0, 37° C.): 11.8 h | half-life [1, 10]: 1.13 h | Half-life (min) ([2]; pH 5.0, 37° C.): ∞ | increase of half-life by 4,7-cyclisation [2, 9]: more than 18 fold | metabolised at 3 h, 0.8 μmol angiotensin/mg pancreas homogenate [2, 11]: 6% | metabolised at 3 h, 0.8 μmol angiotensin/mg pancreas homogenate [2, 12]: 4% | half-life ([2]; pig, tissue homogenate, pH 7.4, 37° C., cell printed in hours): > 24 h | increase of half-life by 4,7-cyclisation [3, 9]: 6 fold | metabolised at 3 h, 0.2 μmol angiotensin/mg kidney homogenate ([3]; pH 5.0, 37° C.): 4% | metabolised at 3 h, 0.2 μmol angiotensin/mg kidney homogenate ([3]; pH 7.4, 37° C.): 91% | half-life ([3]; tissue homogenate, pH 5.0, 37° C., cell printed in hours): > 24 h | half-life [3, 10]: 0.533 h | half-life [4]: 15.4 h | metabolised at 3 h, 1 μmol/ml [4]: 15%

CC[C@H](C)[C@H](NC(=O)[C@H](Cc1ccc(O)cc1)NC(=O)[C@@H](NC(=O)[C@H](CCCNC(=N)N)NC(=O)[C@@H](N)CC(=O)O)C(C)C)C(=O)N[C@@H](Cc1c[nH]cn1)C(=O)N1CCC[C@H]1C(=O)O [Ang(1-7), DRVYIHP, reference compound]
formation of Ang(1-5) by incubation with ACE ([5]; 4 nM ACE): resulted in angiotensin(1-5) formation | breakdown by ACE ([5]; 4 nM ACE, 26 hour incubation): completely broken down | formation of Ang(1-5) by incubation with ACE ([5]; 8 nM ACE): emergence of angiotensin(1-5) | breakdown by ACE ([5]; 8 nM ACE): rapidly broken down | half-life at 0.2 μmol/mg liver homogenate ([1]; pH 5.0, 37° C.): 2.55 h | metabolised at 3 h, 0.2 μmol angiotensin/mg liver homogenate ([1]; pH 5.0, 37° C.): 56% | half-life at 0.2 μmol/mg liver homogenate ([1]; pH 7.4, 37° C.): 0.533 h | metabolised at 3 h, 0.2 μmol angiotensin/mg liver homogenate ([1]; pH 7.4, 37° C.): 100% | Half-life (min) ([2]; pH 5.0, 37° C.): ∞ | metabolised at 3 h, 0.8 μmol angiotensin/mg pancreas homogenate [2, 11]: 16% | half-life at 0.8 μmol/mg pancreas homogenate [2, 12]: 1.35 h | metabolised at 3 h, 0.8 μmol angiotensin/mg pancreas homogenate [2, 12]: 81% | half-life at 0.2 μmol/mg kidney homogenate ([3]; pH 5.0, 37° C.): 0.467 h | metabolised at 3 h, 0.2 μmol angiotensin/mg kidney homogenate ([3]; pH 5.0, 37° C.): 98% | half-life at 0.2 μmol/mg kidney homogenate ([3]; pH 7.4, 37° C.): 0.0833 h | metabolised at 3 h, 0.2 μmol angiotensin/mg kidney homogenate ([3]; pH 7.4, 37° C.): 100% | half-life at 1 μmol/ml [4]: 2.77 h | metabolised at 3 h, 1 μmol/ml [4]: 55% | detection of intact peptide in plasma by Maldi TOF [6]: not detected at all

CC[C@H](C)[C@@H]1NC(=O)C(NC(=O)[C@@H](NC(=O)[C@H](CCCNC(=N)N)NC(=O)[C@@H](N)CC(=O)O)C(C)C)C(C)SC[C@@H](C(=O)N[C@@H](Cc2ccccc2)C(=O)O)NC(=O)[C@H](Cc2c[nH]cn2)NC1=O (stereo partly drawn) [[Cyc^4-7]Ang(1-8), Asp-Arg-Val-Abu-Ile-His-Ala-Phe]
half-life ([1]; pH 7.4, 37° C.): 1.12 h | metabolised at 3 h, 0.2 μmol angiotensin/mg liver homogenate ([1]; pH 7.4, 37° C.): 100% | half-life ([2]; pig, pH 7.4, 37° C.): 8.05 h | metabolised at 3 h, 0.8 μmol angiotensin/mg pancreas homogenate [2, 12]: 21% | half-life ([3]; pH 7.4, 37° C.): 0.117 h | metabolised at 3 h, 0.2 μmol angiotensin/mg kidney homogenate ([3]; pH 7.4, 37° C.): 100%

DRV[Abu]IHA [methyllanthionine-containing Ang(1-7)]
formation of Ang(1-5) by incubation with ACE ([5]; 4 nM ACE): did not lead to the appearance of Ang(1-5) | breakdown by ACE ([5]; 4 nM ACE, 26 hour incubation): no degradation | detection of intact peptide in plasma by Maldi TOF [6]: detected

DRVAIHA
not cleaved [7]: no breakdown observed

DRVYIHP
cleaved bond (ACE): I5-H6 | cleaved bond [7]: I5-H6, major | cleaved bond [8]: I5-H6, major

CC[C@H](C)[C@H](NC(=O)[C@H](Cc1ccc(O)cc1)NC(=O)[C@@H](NC(=O)[C@H](CCCNC(=N)N)NC(=O)[C@@H](N)CC(=O)O)C(C)C)C(=O)N[C@@H](Cc1cnc[nH]1)C(=O)N1CCC[C@H]1C(=O)N[C@@H](Cc1ccccc1)C(=O)O [Ang(1-8), Asp-Arg-Val-Tyr-Ile-His-Pro-Phe, reference compound]
metabolised at 3 h, 0.2 μmol angiotensin/mg liver homogenate ([1]; pH 7.4, 37° C.): 98% | metabolised at 3 h, 0.8 μmol angiotensin/mg pancreas homogenate [2, 12]: 70% | metabolised at 3 h, 0.2 μmol angiotensin/mg kidney homogenate ([3]; pH 7.4, 37° C.): 100%

Source: US8835375B2 (Applied Nanosystems B.V., priority 2006, dated 2014)
